According to patent US11267853B2, “Carbohydrate tethering at cell surfaces to induce immune response” (University of Rhode Island Board of Trustees, priority 2019, dated 2022):
Primed or numbered codes have the meaning given here. Where no end group is shown, it is not given here. Side-chain parts run from the residue outwards. maleimide = maleimide group (rhamnose-PEG12-maleimide) coupled to the N-terminal Cys of the peptide; PEG12′ = polyethylene glycol spacer of 12 units; Rha = rhamnose

Key:
[1] = test system: HeLa cells (tumor spheroids); experiment: Lectin-Cy3 binding to tumor spheroids pre-treated with rhamnose-pHLIP constructs (fluorescence confocal imaging); format: cell-based; settings: HeLa spheroids pre-treated with 0-2 μM construct at pH 6.3, 37° C., 30 min, washed; then Lectin-Cy3 at pH 7.4; compared with lectin-Cy3 alone
Method: Induction of an immunological response requires a proper positioning of carbohydrate epitope at the surface of tumor cells. This was verified on 3-D tumor cancer cell culture (tumor spheroids). Briefly, a 2% agarose solution was made by dissolving in pH 7.4 PBS. 150 μL of the solution is pipetted into each well of a 48-well flat bottom tissue culture plate. After the agarose gel sufficiently settled (˜1 h), 150 μL of DMEM supplemented with 10% FBS and ciprofloxacin.HCl was added to each well. The covered plate was left in a humidified atmosphere at 37° C. and 5% CO2 in cell culture incubator for 24 h. On the next day, the excess medium was removed from the agarose layer. HeLa cells (10,000 cells) in 200 μL of DMEM containing 2% matrigel were added into each well and incubated for 3-4 days to allow the formation of spheroids. Matrigel was dissolved on ice overnight and added in ice cold DMEM at a concentration of 2.5% (to obtain a final concentration of 2% once added to the wells). Then the mixture was heated to 37° C. before being combined with the cells. Tumor spheroids were incubated in 50 μL of PBS buffer, pH 6.3 containing 0-2 μM Rha-pHLIP® or Rha-PEG12-pHLIP® in a humidified atmosphere of 5% CO2 at 37° C. for 30 min. After treatment, the spheroids were washed several times in 1 mL of PBS. […]

[2] = test system: B16-F10 melanoma murine cancer cells (flank tumor); experiment: B16-F10 melanoma tumor weight in tri-Gal-immunized A3galt2-knockout mice after IP treatment; format: in vivo; settings: B16-F10 flank tumors, IP injections 450 μl of 80 μM for 10 consecutive days (total 60 mg/kg), versus non-treated control group
From the text: Mice deficient in α1-3 gylactosyltransferase 2 (A3galt2) on 129/SvEv-[…] background heterozygous breeding pairs was obtained from Taconic Biosciences. The knockout mouse model is described in the article entitled “Normal development and function of invariant natural killer T cells in mice with isoglobotrihexosylceramide (iGb3) deficiency” by Porubsky et al. PNAS 2007 Apr. 3; 104(14): 5977-5982, incorporated herein by reference in its entirety.
All animal studies with the Gal-pHLIP® construct were conducted according to the animal protocol AN1920-003 approved by the Institutional Animal Care and Use Committee at the University of Rhode Island, in compliance with the principles and procedures outlined by the National Institutes of Health for the care and use of animals. Homo- and heterozygous A3galt2-knockout female and male mice on 129/SvEv-C57BL/6J background were used in the study.
First, immunization of mice was performed to develop antibodies against tri-Gal epitope. Briefly, at day 1 mice were immunized with Galα1-3Galβ1-4Glc-HSA (HSA: human serum albumin) from Dextra Laboratories, 20 μg/mouse emulsified in complete Freund's adjuvant. Booster injections of Galα1-3Galβ1-4Glc-HSA emulsified in incomplete Freund's adjuvant were administered at days 13, 20 and 27. […]

Substance | binding of lectin-Cy3 (fluorescence) to tumor spheroids [1] | tumor weight reduction [2]
AS(Rha)DDQNPWRAYLDLLFPTDTLLLDLLWA [Rha-pHLIP®] | much stronger binding of lectin-Cy3 | 
Rha-PEG12-pHLIP®: Rhamnose-PEG12-malemide coupled with single Cys at N-terminal end of pHLIP® ACDDQNPWRAYLDLLFPTDTLLLDLLWA (SEQ ID NO: 469) (AC([maleimide-PEG12′-Rha])DDQNPWRAYLDLLFPTDTLLLDLLWA) | much stronger binding of lectin-Cy3 | 
tri-Gal-PEG4-pHLIP®: tri-Gal-PEG4 (Galα(1,3)Galβ(1,4)Glc-PEG4) coupled with pHLIP® ACDDQNPWRAYLDLLFPTDTLLLDLLWA (SEQ ID NO: 469) (not fully specified (residue 2); also: tri-Gal-PEG4 (Galα(1,3)Galβ(1,4)Glc-PEG4) coupled, site not given here) |  | About 65%
